# Reference: US7405228B2, “Antibacterial cyano-(substituted)-methylenepiperidinophenyl oxazolidinones targeting multiple ribonucleoprotein sites” (Wockhardt Limited, priority 2002, dated 2008)
# Legend:
# Assay type in all cases: cell-based
# E. faecium 367 LNZR = assay: MIC determination, linezolid resistant E. faecium 367 LNZR; details: Enterococcus faecium, read-out: MIC E. faecium 367 LNZR
# Experimental: E. faecium ATCC 19434 strain at a cell density of 10^6/ml was inoculated in Mueller Hinton broth medium containing Linezolid at a concentration of 5 and 7.5 mcg/ml. The stationary culture was incubated at 37° C. and inspected at every 24 hours to assess the formation of turbidity due to the onset of bacterial growth. […] A 50 microliter sample of turbid flask was plated on Mueller Hinton agar medium incorporated with linezolid at 7.5 mcg/ml. The agar plates were incubated for 48 hours at 37° C. for the formation of discrete colonies of linezolid-resistant strain of E. faecium (E. faecium 367 LNZR). MICs of resistant mutant E. faecium 367 LNZR and parent strain E. faecium ATCC 19434 were determined for linezolid by NCCLS method.
# (§1) Cultures were further diluted 1:10 in Mueller Hinton broth. Using Denley's mutipoint inoculator, 10^4 cells were deposited on Mueller Hinton agar (Difco) containing range of 2 fold dilutions of test compounds. […] MIC is defined as minimum drug concentration that inhibits test organisms. For determining MIC of test compounds against Streptococcus pneumoniae, Mueller Hinton agar containing 5% sheep blood was employed.
# S. aureus MRSA-32 LNZR = assay: MIC determination, linezolid resistant S. aureus MRSA-32 LNZR; details: Staphylococcus aureus, 24 h, read-out: MIC MRSA 32 LNZR
# Experimental: (§2) Infecting doses of organisms given by intraperitoneal route in 5% hog gastric mucin were 10^3-10^4 CFU (colony forming units)/animal for SPN 6303 and 10^8 CFU/animal for MRSA-32. In case of MRSA-32, Linezolid was administered by oral route, 1 and 4 h post infection, BID (twice a day) for 1 day and for SPN 6303 BID for 2 days. […] MICs of Methicillin Resistant Staphylococcus aureus-32 Linezolid resistant (MRSA-32 LNZR), S. pneumoniae 744 Linezolid resistant (SPN 744 LNZR) and parent Linezolid sensitive strains MRSA-32 and SPN 6303 were determined for Linezolid by NCCLS agar dilution method.
# as §1
# SPN 744 LNZR = assay: MIC determination, linezolid resistant SPN 744 LNZR; details: Streptococcus pneumoniae, read-out: MIC SPN744 LNZR
# Experimental: as §2, §1
# [1] = tested on: Enterococcus faecalis 416 strain; assay: Propensity to resistance development (resistant colonies per plate); details: E. faecalis 416 at 10^8 CFU, compound concentration 5 mcg/ml, 48 hours at 35° C.
# Experimental: Enterococcus faecalis 416 strain at 10^8 CFU density level was spirally plated on Mueller Hinton agar containing 5 mcg/ml each of linezolid and representative compound of the invention. Plates were incubated at 35° C. for 48 hours and number of resistant colonies developed in presence of respective compounds were counted by automated counter.
# SPN 49619 = assay: MIC determination, linezolid sensitive SPN 49619; details: Streptococcus pneumoniae; linezolid sensitive strain, Table 3
# MRSA 032 = assay: MIC determination, linezolid sensitive MRSA 032 (MRSA-32); details: Staphylococcus aureus, read-out: MIC MRSA 32
# Experimental: as §2, §1
Compound,MIC (E. faecium 367 LNZR) [µg/mL],MIC (S. aureus MRSA-32 LNZR) [µg/mL],MIC (SPN 744 LNZR) [µg/mL],No. of colonies/plate [1],MIC (SPN 49619) [µg/mL],MIC (MRSA 032) [µg/mL]
"CC(=O)NC[C@H]1CN(c2ccc(N3CCC(=C(C)C#N)CC3)c(F)c2)C(=O)O1 [Example 74, (S)-N-{3-[4-(4-(1-cyanoethylidene)-piperidin-1-yl)-3-fluorophenyl]-2-oxo-oxazolidin-5-ylmethyl}-acetamide]",6.25,25,6.25,0,,
"CC(=S)NC[C@H]1CN(c2ccc(N3CCC(=CC#N)CC3)c(F)c2)C(=O)O1 [Example 45, (S)-N-{3-[4-(4-cyanomethylidene-piperidin-1-yl)-3-fluorophenyl]-2-oxo-oxazolidin-5-ylmethyl}-thioacetamide]",,3.12,3.12,,0.2,0.2
"N#CC=C1CCN(c2ccc(N3C[C@H](CNC(=S)CO)OC3=O)cc2F)CC1 [Example 47, (S)-N-{3-[4-(4-cyanomethylidene-piperidin-1-yl)-3-fluorophenyl]-2-oxo-oxazolidin-5-ylmethyl}-2-hydroxythioacetamide]",,,,0,0.4,0.8
"CC(=S)NC[C@H]1CN(c2ccc(N3CCC(=C(C#N)C(=S)N4CCOCC4)CC3)c(F)c2)C(=O)O1 [Example 121, (S)-N-{3-[4-(4-(1-cyano-1-(morpholin-1-yl-thiocarbonyl)-methylidene)-piperidin-1-yl)-3-fluorophenyl]-2-oxo-oxazolidin-5-ylmethyl}-thioacetamide]",,6.25,1.56,,0.2,0.4
"COC(=S)NC[C@H]1CN(c2ccc(N3CC/C(=C\C#N)C(C)C3)c(F)c2)C(=O)O1 (stereo partly drawn) [Example 67, (S)-N-{3-[4-(4-cyanomethylidene-3-methylpiperidin-1-yl)-3-fluorophenyl]-2-oxo-oxazolidin-5-ylmethyl}-methylthiocarbamate]",3.12,12.5,6.25,,0.4,0.8
"CC(=S)NC[C@H]1CN(c2ccc(N3CCC(=C(C)C#N)CC3)c(F)c2)C(=O)O1 [Example 84, (S)-N-{3-[4-(4-(1-cyanoethylidene)-piperidin-1-yl)-3-fluorophenyl]-2-oxo-oxazolidin-5-ylmethyl}-thioacetamide]",1.56,1.56,1.56,,0.2,0.4
"CC(=O)NC[C@H]1CN(c2ccc(N3CC/C(=C/C#N)C(F)C3)c(F)c2)C(=O)O1 (stereo partly drawn) [56 (Z), Z-(S)-N-{3-[4-(4-cyanomethylidene-3-fluoropiperidin-1-yl)-3-fluorophenyl]-2-oxo-oxazolidin-5-ylmethyl}-acetamide]",6.25,25,12.5,,0.8,0.8
"CCC(C#N)=C1CCN(c2ccc(N3C[C@H](CNC(C)=S)OC3=O)cc2F)CC1 [Example 93, (S)-N-{3-[4-(4-(1-cyanopropylidene)-piperidin-1-yl)-3-fluorophenyl]-2-oxo-oxazolidin-5-ylmethyl}-thioacetamide]",1.56,6.25,3.12,,0.2,0.4
"CC(=S)NC[C@H]1CN(c2ccc(N3CCC(=C(C#N)c4ccccn4)CC3)c(F)c2)C(=O)O1 [Example 118, (S)-N-{3-[4-(4-(1-cyano-1-(pyridin-2-yl)-methylidene)-piperidin-1-yl)-3-fluorophen]-2-oxo-oxazolidin-5-ylmethyl}-thioacetamide]",,,,,0.4,0.8
"CC(=O)NC[C@H]1CN(c2ccc(N3CCC(=C(C#N)c4cccs4)CC3)c(F)c2)C(=O)O1 [Example 105, (S)-N-{3-[4-(4-(1-cyano-1-(thiophen-2-yl)-methylidene)-piperidin-1-yl)-3-fluorophenyl]-2-oxo-oxazolidin-5-ylmethyl}-acetamide]",,,,,0.8,0.8
"CCC(C#N)=C1CCN(c2ccc(N3C[C@H](CNC(C)=O)OC3=O)cc2F)CC1 [Example 89, (S)-N-{3-[4-(4-(1-cyanopropylidene)-piperidin-1-yl)-3-fluorophenyl]-2-oxo-oxazolidin-5-ylmethyl}-acetamide]",6.25,25,12.5,,,
